Experimental data reported in patent US20120156137A1, “COMPOSITION FOR TREATMENT OF ATOPIC DERMATITIS COMPRISING GLUCOSAMINE AND DERIVATIVES THEREOF AND A METHOD FOR TREATMENT OF ATOPIC DERMATITIS USING THEM” (priority 2006, published 2012).

Experiments:
[1] = system: TPA-induced mouse ear edema model; experiment: Anti-inflammatory activity of glucosamine topically applied to the TPA-induced mouse ear edema model; type: in vivo; conditions: male ICR mice; topical 0.5%, 1% or 2% glucosamine 15 min and 6 hrs after TPA; read 24 hrs after TPA
Procedure: Ear edema was induced in mice using 12-O-tetradecanoylphorbol 13-acetate (TPA), as follows. TPA was prepared at 2.5[…]/20[…] in acetone. ICR mice were prepared one week before this test and allowed free access to food and water in order to minimize the stress of transport. 20[…] of the TPA solution was applied onto right ears of male ICR mice (7 weeks old). After 24 hrs, mice were sacrificed by cervical dislocation, and the right ears were punched using a 6-mm biopsy punch. The ear punches were weighed using a microbalance, finely teased, and subjected to a myeloperoxidase (MPO) assay. Thirty male ICR mice (7 weeks old, weighing 25-32 g) were divided into six groups, each of which consisted of five mice. Experimental animals were allowed free access to food and water for one week in order to minimize the stress of transport. Glucos amine and a control drug were diluted in sterile distilled water and then diluted 1:9 in acetone. Group 1 was not treated with TPA or any drug. Group 2 was treated with TPA alone on the right ear skin thereof. Group 3 was topically treated with TPA, and then with 20[…] of 0.5% glucosamine in sterile distilled water/acetone (1:9) 15 min and 6 hrs after TPA application. According to the same procedure as in Group 3, Group 4 was topically treated with 1% glucosamine, and Group 5 with 2% glucosamine. […]

transglutaminase = conditions: as described in Korean Pat. Application No. 10-2006-56942; cited from earlier work
atopy patients = experiment: Clinical test for therapeutic effects of glucosamine on atopy; type: in vivo, human; conditions: twenty atopy patients
Procedure: A clinical test was performed with twenty atopy patients in order to determine whether glucosamine has therapeutic effects on atopy in practice. The clinical test was conducted by the Department of Dermatology, Dongguk University Hospital (attending physician: A Y Lee; the clinical test was approved by an IRB of Dongguk University Hospital). Twenty atopy patients were dosed with glucosamine in the form of a tablet and a cream. In brief, glucosamine was orally administered at a daily dose of 500 mg for a period of two weeks. The cream (5% glucosamine) was topically applied to a desired site of the skin twice a day for a period of four weeks.

[2] = system: TPA-induced mouse ear edema model; experiment: Anti-inflammatory activity of glucosamine orally administered to the TPA-induced mouse ear edema model; type: in vivo; conditions: male ICR mice; oral 5, 10 or 20 mg/kg glucosamine 15 min and 6 hrs after TPA; read 24 hrs after TPA
Procedure: Ear edema was induced in mice using 12-O-tetradecanoylphorbol 13-acetate (TPA), as follows. TPA was prepared at 2.5[…]/20[…] in acetone. ICR mice were prepared one week before this test and allowed free access to food and water in order to minimize the stress of transport. 20[…] of the TPA solution was applied onto right ears of male ICR mice (7 weeks old). After 24 hrs, mice were sacrificed by cervical dislocation, and the right ears were punched using a 6-mm biopsy punch. The ear punches were weighed using a microbalance, finely teased, and subjected to a myeloperoxidase (MPO) assay. Thirty five male ICR mice (7 weeks old, weighing 25-32 g) were divided into seven groups, each of which consisted of five mice. Experimental animals were allowed free access to food and water for one week in order to minimize the stress of transport. Glucosamine and a control drug were diluted in sterile physiological saline. Group 1 was not treated with TPA or any drug. Group 2 was treated with TPA alone on the right ear skin thereof. Group 3 was topically applied with TPA, and then orally administered through a sonde with 0.5 ml of glucosamine in sterile physiological saline 15 min and 6 hrs after TPA application. […]

## N[C@H]1C(O)O[C@H](CO)[C@@H](O)[C@@H]1O (some centres unmarked) [glucosamine]
[1]
  inhibition of acute inflammation (ear punch weight and MPO activity, FIGS. 1 and 2): inhibit acute inflammation regardless of concentrations thereof
transglutaminase
  inhibitory activity toward transglutaminase: has inhibitory activity toward transglutaminase
Atopy patients; cream (5% glucosamine) topically twice a day for four weeks
  therapeutic effects on atopy, external use (FIG. 5): significant therapeutic effects on atopy
Atopy patients; tablet, oral daily dose 500 mg for two weeks
  therapeutic effects on atopy, oral administration (FIG. 5): significant therapeutic effects on atopy
[2]
  inhibition of acute inflammation (ear punch weight and MPO activity, FIGS. 3 and 4): inhibited acute inflammation regardless of the concentration thereof
